# Experimental data published in patent US4160643A, “Water soluble cationic azo dyestuffs containing a cyclammonium group” (Imperial Chemical Industries Limited, priority 1976, dated 1979).
# Where two headings read alike, the source gives them in different places.
# Key:
# [1] = Behaviour in forming a liquid in a water/acetic acid/sulpholane solvent system; type: physicochemical; settings: Table 1; ambient temperature
# [2] = Solubility of dyestuffs in water; type: physicochemical
# [3] = Table 1, 25° C., read-out: Solubility in water at 25° C.
# [4] = Table 3, dyestuff of Example 13 structure, chloride, 25° C., read-out: Solubility in water at 25° C.
# [5] = Table 3, dyestuff of Example 13 structure, chloride, 50° C., read-out: Solubility in water at 50° C.
# [6] = Table 4, dyestuff of Example 19 structure, acid sulphate, 25° C., read-out: Solubility in water at 25° C.
# [7] = Table 4, dyestuff of Example 19 structure, acid sulphate, 50° C., read-out: Solubility in water at 50° C.
smiles,measurement,setting,value
O=[N+]([O-])c1ccc(N=Nc2ccc(NCC[n+]3ccccc3)c(Cl)c2)cc1 [Pyridine (Table 1)],Solubility of 1 part of dye in 1 part water 1.5 part acetic acid 1 part sulpholane,[1],Not a solution at ambient
same,solubility,[2]; [3],< 2500 µg/mL
CCN(CC[n+]1ccccc1)c1ccc(N=Nc2ccc([N+](=O)[O-])cc2Cl)cc1 [Pyridine (Table 3)],solubility,[2]; [4],10000 µg/mL
same,solubility,[2]; [5],300000 µg/mL
CCN(CC[n+]1ccccc1)c1ccc(N=Nc2c(Cl)cc([N+](=O)[O-])cc2Cl)cc1 [Pyridine (Table 4)],solubility,[2]; [6],10000 µg/mL
same,solubility,[2]; [7],20000 µg/mL
Cc1cccc[n+]1CCNc1ccc(N=Nc2ccc([N+](=O)[O-])cc2)cc1Cl [α-picoline],solubility,[2]; [3],< 2500 µg/mL
Cc1cc[n+](CCNc2ccc(N=Nc3ccc([N+](=O)[O-])cc3)cc2Cl)cc1 [γ-picoline (Table 1)],Solubility of 1 part of dye in 1 part water 1.5 part acetic acid 1 part sulpholane,[1],Not a solution at ambient
same,solubility,[2]; [3],75000 to 100000 µg/mL
CCN(CC[n+]1ccc(C)cc1)c1ccc(N=Nc2ccc([N+](=O)[O-])cc2Cl)cc1 [γ-picoline (Table 3)],solubility,[2]; [4],10000 µg/mL
same,solubility,[2]; [5],240000 µg/mL
CCN(CC[n+]1ccc(C)cc1)c1ccc(N=Nc2c(Cl)cc([N+](=O)[O-])cc2Cl)cc1 [γ-picoline (Table 4)],solubility,[2]; [6],1000 µg/mL
same,solubility,[2]; [7],5000 µg/mL
